# Patent US7423030B2, “1-amino-phthalazine derivatives, the preparation and the therapeutic use thereof” (Sanofi-Aventis, priority 2004, dated 2008)
# Counter-ions that a name gives are not always drawn.
row,melting point [°C],Compound
1,294,COc1ccc(-c2nnc(NC3CCN(Cc4ccc(CO)cc4)CC3)c3cc(OC)ccc23)cc1.Cl.Cl (hydrate or solvate)
2,115,"COc1ccc2c(-c3cccs3)nnc(NC3CCN(Cc4ccccc4)CC3)c2c1 (as salt: salt) (hydrate or solvate) [Compound 8, N-(1-benzylpiperidin-4-yl)-7-methoxy-4-(thiophen-2-yl)phthalazin-1-amine]"
3,176,"COc1ccc(-c2nnc(NC3CCN(Cc4ccc5sccc5c4)CC3)c3cc(OC)ccc23)cc1 (as salt: salt) (hydrate or solvate) [Compound 60, N-[1-(1-benzothien-5-ylmethyl)piperidin-4-yl]-7-methoxy-4-(4-methoxyphenyl)phthalazin-1-amine]"
4,278,"COc1ccc(-c2nnc(NC3CCN(Cc4ccc5cc[nH]c5c4)CC3)c3cc(OC)ccc23)cc1 (as salt: salt) (hydrate or solvate) [Compound 129, N-[1-(1H-indol-6-ylmethyl)piperidin-4-yl]-7-methoxy-4-(4-methoxyphenyl)phthalazin-1-amine]"
5,210,"COc1ccc(-c2nnc(NC3CCN(Cc4ccc(C)c(F)c4)CC3)c3cc(OC)ccc23)cc1 [Compound 74, N-[1-(3-fluoro-4-methylbenzyl)piperidin-4-yl]-7-methoxy-4-(4-methoxyphenyl)phthalazin-1-amine]"
6,267,"COc1ccc(-c2nnc(NC3CCN(Cc4ccc5[nH]cnc5c4)CC3)c3cc(OC)ccc23)cc1 [Compound 138, N-[1-(1H-benzimidazol-5-ylmethyl)piperidin-4-yl]-7-methoxy-4-(4-methoxyphenyl)phthalazin-1-amine]"
7,250,COc1ccc(OC)c(-c2nnc(NC3CCN(Cc4ccc5occc5c4)CC3)c3cc(OC)ccc23)c1.Cl.Cl (hydrate or solvate)
8,210,COc1ccc2c(-c3ccc(C)c(C)c3)nnc(NC3CCN(Cc4ccc5ccccc5c4)CC3)c2c1.Cl.Cl (hydrate or solvate)
9,176,COCc1nnc(NC2CCN(Cc3ccc4ccccc4c3)CC2)c2cc(OC)ccc12.Cl (hydrate or solvate)
10,154,"COc1cccc(-c2nnc(NC3CCN(Cc4ccc5ccccc5c4)CC3)c3cc(OC)ccc23)c1 (as salt: salt) (hydrate or solvate) [Compound 5, 7-methoxy-4-(3-methoxyphenyl)-N-[1-(naphthalen-2-ylmethyl)piperidin-4-yl]phthalazin-1-amine]"
11,228,COc1ccc(-c2nnc(NC3CCN(Cc4ccc5ccccc5c4)CC3)c3cc(OC)ccc23)c(OC)c1.Cl.Cl (hydrate or solvate)
12,155,"COc1ccc2c(-c3ccc(C)s3)nnc(NC3CCN(Cc4ccccc4)CC3)c2c1 (as salt: salt) (hydrate or solvate) [Compound 16, N-(1-benzylpiperidin-4-yl)-7-methoxy-4-(5-methylthiophen-2-yl)phthalazin-1-amine]"
13,245,CCc1ccc(CN2CCC(Nc3nnc(-c4ccc(OC)cc4)c4ccc(OC)cc34)CC2)cc1.Cl.Cl (hydrate or solvate)
14,292,COc1ccc2c(-c3ccc(-c4ccccc4)cc3)nnc(NC3CCN(Cc4ccc5ccccc5c4)CC3)c2c1.Cl.Cl (hydrate or solvate)
15,130,"COc1ccc(-c2nnc(NC3CCN(Cc4ccc(C)c(C)c4)CC3)c3cc(OC)ccc23)cc1 (as salt: salt) (hydrate or solvate) [Compound 29, N-[1-(3,4-dimethylbenzyl)piperidin-4-yl]-7-methoxy-4-(4-methoxyphenyl)phthalazin-1-amine]"
16,139,COc1ccc(-c2nnc(NC3CCN(Cc4ccc(CO)cc4)CC3)c3cc(OC)ccc23)cc1.Cl.Cl
